Source: US20210015830A1, “COMPOSITION FOR INHIBITING REACTIVE OXYGEN SPECIES PRODUCTION” (SUNTORY HOLDINGS LIMITED, priority 2017, published 2021)
pIC50: −log10 of the molar value. Like-named read-outs stand apart in the source and are kept apart here.

Assays:
[1] = target: T1, NADPH oxidase (NOX) (Homo sapiens, UniProt P04839); assay: Measurement of NOX inhibitory activity in differentiated HL-60 cells (PMA-activated superoxide production, WST-1 formazan absorbance at 450 nm); format: cell-based; details: for Inhibitory activity ratio: 3-acetyl triterpenic acid versus the triterpenic acid without acetyl group, formula (i)
T1 construct: HL-60 cells were differentiated into NOX-expressing granulocytes; endogenous in cells; host or cells: HL-60 cells differentiated into granulocytes with 1% DMSO
T1 sequence (P04839 1-570): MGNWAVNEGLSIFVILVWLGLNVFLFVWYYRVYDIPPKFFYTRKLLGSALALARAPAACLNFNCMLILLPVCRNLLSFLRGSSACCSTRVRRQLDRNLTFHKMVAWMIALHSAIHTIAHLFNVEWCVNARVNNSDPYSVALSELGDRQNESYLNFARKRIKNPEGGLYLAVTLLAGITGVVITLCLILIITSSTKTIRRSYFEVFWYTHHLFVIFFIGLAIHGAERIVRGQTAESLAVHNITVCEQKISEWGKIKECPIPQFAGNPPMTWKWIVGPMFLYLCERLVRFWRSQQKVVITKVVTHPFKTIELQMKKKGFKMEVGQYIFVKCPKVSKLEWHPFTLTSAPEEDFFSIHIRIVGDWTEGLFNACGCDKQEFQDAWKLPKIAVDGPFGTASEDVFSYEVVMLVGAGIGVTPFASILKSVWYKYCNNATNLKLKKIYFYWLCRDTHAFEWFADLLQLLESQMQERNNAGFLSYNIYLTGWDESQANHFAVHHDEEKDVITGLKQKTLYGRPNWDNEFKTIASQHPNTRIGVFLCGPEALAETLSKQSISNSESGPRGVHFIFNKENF
T1 sequence (P13498 1-195 partner): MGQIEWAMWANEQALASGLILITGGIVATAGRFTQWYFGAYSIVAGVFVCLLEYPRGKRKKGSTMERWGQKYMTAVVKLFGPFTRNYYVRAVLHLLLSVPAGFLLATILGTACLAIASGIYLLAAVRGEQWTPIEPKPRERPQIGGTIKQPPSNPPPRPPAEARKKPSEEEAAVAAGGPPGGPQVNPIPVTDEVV
Description: It is known that undifferentiated human myeloid leukemia HL-60 cells have an ability to proliferate, but differentiate into mature granulocytes by adding DMSO (dimethyl sulfoxide), retinoic acid, or the like and lose their proliferative ability. Mature HL-60 cells express NOX that serves as an indicator of differentiation. NOX can be used as an indicator for evaluating NOX inhibitory activity.
HL-60 cells were differentiated into NOX-expressing granulocytes by the following method.
Then, the suspension was dispensed into cell culture dishes (100 mm) so as to be 15 mL each, and the cells were cultured in a CO2 incubator (37° C.) for 3 days.
The differentiated HL-60 cells were used to measure NOX inhibitory activity as will be described below.
WST-1 (2-(4-iodophenyl)-3-(4-nitrophenyl)-5-(2,4-disulfophenyl)-2H-tetrazolium, monosodium salt) was dissolved in a D-MEM medium so as to be 0.8 mg/mL, and thus a WST-1 solution was prepared. WST-1 reacts with superoxide and produces yellow formazan. Yellow formazan absorbs a wavelength of 450 nm, and, therefore, the amount of yellow formazan can be measured by measuring absorbance at a wavelength of 450 nm. Also, the amount of yellow formazan produced is proportional to the amount of superoxide during the reaction, and, therefore, the amount of superoxide can be measured by measuring the amount of yellow formazan produced.
PMA (phorbol 12-myristate 13-acetate) was dissolved in a D-MEM medium so as to be 4 μM, and thus a PMA solution was prepared.
PMA is known to function to activate NOX and causes superoxide production.
The differentiated HL-60 cells were collected by centrifugation, and suspended in a D-MEM medium containing neither FBS nor phenol red so as to be 5×10^6 cells/mL.
The cell suspension was added into a 96-well microplate so as to be 25 μL per well.
Next, 25 μL of the WST-1 solution prepared as described above was added to the wells.
After adding the solutions, the cell suspensions were stirred.
Thereafter, 25 μL of the prepared PMA solution was added (a final PMA concentration in the medium being 1 μM) to activate NOX and carry out a reaction at 37° C. for 60 minutes.
Then, by measuring absorbance at a wavelength of 450 nm, the amount of yellow formazan produced and thus the amount of superoxide produced by NOX were measured.
Inhibitory activity ratio=(IC50 of triterpenic acid having acetyl group)/(IC50 of triterpenic acid without acetyl group) (i)
Based on the obtained measurement results, the IC50 (μg/mL) of fraction 1 and fraction 2 was determined.
Moreover, the inhibitory activity ratio of triterpenic acid having an acetyl group in fraction 2 to triterpenic acid without an acetyl group in fraction 1 was calculated using formula (i).

[2] = system: Senescent Accelerated Model Prone 10 (SAMP10) mouse; assay: Brain function evaluation by passive avoidance test (step-through test) in senescence accelerated model; format: in vivo; details: SAMP10 mice, AIN-93M containing 0.006% ursolic acid or 0.002% acetylursolic acid for 12 weeks, evaluated at 11 months old
Method: The effect of inhibiting a decline in brain function of the Aronia extract was evaluated using the extract powder obtained in Example 2. The Senescent Accelerated Model Prone 10 (SAMP10) mouse, which is one of the senescence accelerated models, is known to show age-related decline in brain function at an early stage, and can be used to evaluate effects on an age-related decline in brain function. Accordingly, this animal was used to investigate the brain function ameliorating effect of the Aronia extract. A series of animal experiments were carried out based on a plan that complies with the animal welfare management law and other relevant laws and that is approved by the head of an organization after being reviewed by an institutional animal experiment committee.
(§1) As for a young (young control) group, SAMP10 mice at 8 weeks old were purchased, acclimated for 7 days, and received AIN-93M (manufactured by CLEA Japan Inc.) as a base food for 12 weeks, and then the brain function was evaluated at 4 months old (N=15). As for an elderly group, mice at 14 weeks old were purchased, acclimated until 8 months old, randomly divided into 2 groups, received AIN-93M or AIN-93M containing 0.02% Aronia extract for 12 weeks, and then the brain function was evaluated at 11 months old (an elderly control group (N=26), an elderly Aronia received group (N=18)). The food was changed once a week, and the food intake and the body weight were measured once a week.
A brain function was evaluated using a passive avoidance test (a step-through test). […]
Mice were placed in a light room (9 cm width, 11.5 cm depth, 15 cm height) of a step-through passive avoidance response tester (manufactured by Muromachi Kikai Co., Ltd.), then a door to a dark room (14 cm width, 17.5 cm depth, 15 cm height) was opened 30 seconds later, and the time until the mice entered the dark room (the light room latency) was measured. […]
A retention trial was performed the day after the acquisition trial. The same operation as the acquisition trial was performed on the mice, and the latency in light room was measured. […] The latency was measured up to 300 seconds, and evaluations were made such that the longer the latency of the retention trial is, the higher the memory function is.
The brain function ameliorating effects of ursolic acid and acetylursolic acid contained in Aronia were compared in terms of the recovery of light room latency. […] When the mice reached 11 months old, a brain function was evaluated according to the method of Reference Example 1 (0.006% ursolic acid received group (N=8), and 0.002% acetylursolic acid received group (N=10)).

[3] = Body weight and food intake of SAMP10 mice during 12-week feeding; format: in vivo, mouse; details: AIN-93M containing 0.006% ursolic acid or 0.002% acetylursolic acid for 12 weeks
Method: as §1
The brain function ameliorating effects of ursolic acid and acetylursolic acid contained in Aronia were compared in terms of the recovery of light room latency. SAMP10 mice at 14 weeks old were purchased, acclimated until 8 months old, then randomly divided into two groups, and received AIN-93M containing 0.006% ursolic acid or AIN-93M containing 0.002% acetylursolic acid for 12 weeks. When the mice reached 11 months old, a brain function was evaluated according to the method of Reference Example 1 (0.006% ursolic acid received group (N=8), and 0.002% acetylursolic acid received group (N=10)).

[4] = standard products, differentiated HL-60 cells, 1 μM PMA, 37° C., 60 minutes, read-out: IC50

pIC50 [1, 4] | Structure (SMILES) | pIC50 [1] | Inhibitory activity ratio [1] [times] | latency in light room, acquisition trial [2] | latency in light room, retention trial [2] | body weight and food intake [3]
 | CC(=O)O[C@H]1CC[C@]2(C)[C@H]3CC=C4[C@@H]5CC(C)(C)CC[C@]5(C(=O)O)CC[C@@]4(C)[C@]3(C)CC[C@H]2C1(C)C [3-Acetyloleanolic acid] | 5.00 | 4.4 |  |  | 
5.22 | CC(=O)O[C@H]1CC[C@]2(C)[C@H]3CC=C4[C@@H]5[C@@H](C)[C@H](C)CC[C@]5(C(=O)O)CC[C@@]4(C)[C@]3(C)CC[C@H]2C1(C)C [3-Acetylursolic acid] |  | 7.3 | no difference between groups | stronger effect on ameliorating brain function than ursolic acid | 
4.36 | C[C@H]1[C@H](C)CC[C@]2(C(=O)O)CC[C@]3(C)C(=CC[C@@H]4[C@@]5(C)CC[C@H](O)C(C)(C)[C@@H]5CC[C@]43C)[C@H]12 [Ursolic acid, reference compound] |  |  | no difference between groups | act to inhibit an age-related decline in brain function | no difference
